# Measurements: patent US6228889A, “Methods for treatment of conditions associated with lactosylceramide” (priority 1999, dated 2001)
# Structures can show the parent of a compound that is named as a salt. Where two headings read alike, the source gives them in different places.
# Tests used:
# Mac-1 (CD11b/CD18) = conditions: for Mac-1 expression on PMNs, other GSL: 100 nmol/L, 20 minutes
# GlcT-1 = molecular target: T1, GlcT-1 (Homo sapiens, UniProt Q16739); conditions: reported in literature; cited from earlier work
# T1 sequence (Q16739 1-394): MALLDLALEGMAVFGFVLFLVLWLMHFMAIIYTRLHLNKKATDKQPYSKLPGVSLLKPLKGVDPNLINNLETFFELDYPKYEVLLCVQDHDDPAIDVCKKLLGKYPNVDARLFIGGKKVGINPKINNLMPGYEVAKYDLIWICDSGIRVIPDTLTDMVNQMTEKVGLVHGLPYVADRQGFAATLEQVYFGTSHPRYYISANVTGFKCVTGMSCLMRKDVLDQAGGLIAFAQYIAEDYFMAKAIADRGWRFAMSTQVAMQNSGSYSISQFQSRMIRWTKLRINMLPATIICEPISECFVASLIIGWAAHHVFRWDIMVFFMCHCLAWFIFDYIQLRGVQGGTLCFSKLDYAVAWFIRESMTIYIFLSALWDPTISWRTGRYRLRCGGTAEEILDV
# vascular cells = conditions: reported in literature; cited from earlier work
# GalT-2 [1] = assay: GalT-2 activity in endothelial cells; assay type: cell-based, human
# Experimental: Particularly preferred are GalT-2 assays conducted with the ASMCs and performed in accordance with previously described methods. See e.g., Chatterjee, S., and Castiglione, E. (1987) Biochem. Biophys. Acta, 923:136; and Chatterjee, (1991) S. Biochem. Biophys. Res Comm., 181:554.
# Another preferred assay of the invention includes the following steps a) through d):
# a) culturing a population of LacCer-responsive cells preferably to confluency in lipoprotein-deficient serum medium, e.g., about 1 mg lipoprotein-deficient serum/protein/ml of medium or less;
# b) harvesting the cells preferably in a suitable dispersive buffer, e.g., cacodylate buffer,
# c) incubating the harvested cells preferably with a detectably labeled molecule such as a detectably-labeled nucleoside diphosphate sugar donor such as [^14 C]-UDP-galactose typcially in an amount between about 0. 1 to 100 μCi; and
# d) measuring LacCer formation as indicative of the activity of the GalT-2 enzyme.
# GlcCer, LacCer = assay: Glycosphingolipid levels (HPLC) in thoracic aorta of balloon angioplasty rabbits; assay type: in vivo; conditions: rabbit thoracic aorta
# Experimental: (§1) Experiments were performed on rabbits to examine the effects of D-PDMP on aortic stenosis following balloon angioplasty. The rabbits were given intramuscular injection of D-PDMP (10 mg/kg) or vehicle 24 hours prior to balloon angioplasty and this regimen was continued for 15 days. Next, the thoracic aorta was harvested, the glycosphingolipids was measured by HPLC analysis, and GalT-2 activity was measured employing assays described above.
# GalT-2 [2] = assay: GalT-2 activity in thoracic aorta of balloon angioplasty rabbits; assay type: in vivo; conditions: rabbit thoracic aorta; 10 mg/kg intramuscular, 15 days
# Experimental: as §1
# intimal proliferation = assay: Intimal proliferation following balloon angioplasty in rabbits (aorta histology); assay type: in vivo; conditions: rabbit aorta; 10 mg/kg intramuscular daily for six weeks after balloon angioplasty
# Text: A rabbit model of restenosis accompanying an invasive surgical procedure such as balloon angioplasty is preferred. One suitable protocol involves administering to the rabbit a suitable vehicle or vehicle combined with one or more GalT-2 inhibitor compounds of interest. The amount of the GalT-2 inhibitor compound administered will vary depending on several parameters including the extent of damage associated with the surgical procedure of interest. In instances where balloon angioplasty is employed, the rabbit will typically receive a candidate GalT-2 inhibitor compound in a dose (e.g., i.m. or i.p.) of between about 0.5 to 100, preferably 1 to 20 and more preferably about 10 mg/kg body weight of the rabbit. A preferred dosage schedule provides for administration of a GalT-2 inhibitor compound starting 24 hurs prior to conducting an invasive surgical procedure, and then continuing administration of the GalT-2 inhibitor compound for 15 days following the surgical procedure. In other protocols, daily injections of the GalT-2 inhibitor compound may be made for about 2 to 12 weeks following the invasive surgical procedure. […] Subsequently, the rabbits are euthanized and a vessel removed for examination, preferably the aorta The vessel is then fixed with formalin and analyzed for proliferation of vascular endothelia, media and advantitia using standard histological procedures. […]
# ICAM-1 = conditions: for effect on LacCer mediated stimulation of ICAM-1 expression: 5 μM LacCer 4 hours, DPI 10 μM 30 minutes, NAC 15 mM 30 minutes, PDTC 100 μM 1 hour
# Eahy 926 cells = assay: Superoxide production by intact Eahy 926 (lucigenin chemiluminescence); assay type: cell-based, human; conditions: 5 μM LacCer; DPI 10 μM 30 minutes, NAC 15 mM 30 minutes, SOD exogenously added (200 U/ml), allopurinol
# PMNs [3] = assay: ROM generation by PMNs (DCFH-DA); assay type: cell-based, human; conditions: 100 or 200 nmol/L LacCer
# [4] = test system: neutrophil adhesion to Eahy 926 cells; assay: Confocal microscopic study of adhesion of human neutrophils to Eahy 926 endothelial cells; assay type: cell-based; conditions: endothelial cells preincubated with 10 μM DPI or 15 mM NAC 30 minutes, then 5 μM LacCer 4 hours
# PMNs [5] = assay: Superoxide generation in PMNs (lucigenin); assay type: cell-based, human; conditions: SOD 500 U/ml, DPI 10 μM/L, apocyanin 90 μmol/L, about 15 minutes preincubation; 100 nmol LacCer 20 minutes
# [6] = test system: PMN adhesion to unstimulated endothelial cells; assay: PMN-endothelial adhesion assay; assay type: cell-based, human; conditions: 100 nmol/L LacCer; anti-CD18 5 μg/ml; quinacrine increasing doses
# Experimental: 12. PMN-Endothelial Adhesion Assay. PMNs were labeled fluorescently by incubation with 5 μmol/L Calcein-AM (Molecular Probes) in calcium-free PBS for 20 minutes at 37° C., washed and resuspended in Hanks' balanced salt solution (Gibco) containing 0.2% bovine serum albumin (BSA). These PMNs were then treated with LacCer (or vehicle, 0.05% DMSO), washed 3 times with PBS and then plated on the unstimulated ec monolayers, which had been grown to confluence in 24-well plates. The PMNs (600 μL of 2×10^6 /mL/well) then were incubated with the ecs for 30 minutes at 37° C. Non-adherent PMNs were then removed by gentle washing 3 times with PBS. The residual adherent PMNs (and ecs) were then lysed using 4mmol/L Zwittergent Calbiochem, La Jolla, Calif.) and the plates read on a fluorescence plate reader (Millipore) at EX 480 nm/EM 530 nm. The number of adherent PMNs were expressed as number of PMN/mm^2 ec monolayer, based on the mean fluorescent intensity of each PMN, as determined from a standard curve. 13. Additional Methods. LacCer, ceramide and […] (all from Sigma) were prepared as described in examples below, and used as putative agonists for the stimulation of PMN adhesion molecule expression, assayed by FACScan. […]
# [7] = inhibitor 20 minutes, then 100 nmol/L LacCer 20 minutes, BPB 10 μmol/L
# [8] = endothelial cells preincubated with D-PDMP
# [9] = balloon angioplasty, 10 mg/kg intramuscular from 24 hours prior, continued for 15 days
# [10] = endothelial cells, TNF-α as stimulant
compound,measurement,setting,value
CC(=O)OCOC(=O)CN(CC(=O)OCOC(C)=O)c1ccccc1OCCOc1ccccc1N(CC(=O)OCOC(C)=O)CC(=O)OCOC(C)=O [BAPTA/AM],effect on LacCer-stimulated Mac-1 upregulation on PMNs,Mac-1 (CD11b/CD18); [7],did not inhibit
"CCCCCCCCCC(=O)N[C@H](CN1CCOCC1)[C@H](O)c1ccccc1 [D-PDMP, (1R, 2R)-1-phenyl-2-decanoylamino-3-morpholino-1-propanol]",inhibition of GlcT-1,GlcT-1,inhibits
same,proliferation of vascular cells,vascular cells,reduces
same,GalT-2 activity induced by TNF-α,GalT-2 [1]; [8],concentration-dependent decrease
same,level of GicCer and LacCer,"GlcCer, LacCer; 10 mg/kg intramuscular, 15 days",decrease significantly
same,GSL Concentration GlcCer,"GlcCer, LacCer; [9]",6 μg/gm wet weight
same,GSL Concentration LacCer,"GlcCer, LacCer; [9]",10 μg/gm wet weight
same,decrease of GalT-2 activity versus vehicle,GalT-2 [2],~ 1.7 fold
same,intimal proliferation at the site of balloon angioplasty,intimal proliferation,complete absence of intimal proliferation
same,ICAM-1 expression induced by TNF-α,ICAM-1; [8],concentration-dependent decrease
"c1ccc2c(c1)[I+]c1ccccc1-2 [DPI, diphenyleneiodonium chloride]",effect on LacCer induced generation of O2- in endothelial cells,Eahy 926 cells,failed to respond
same,effect on neutrophil ROM generation induced by LacCer,PMNs [3],completely blocked
same,effect on NADPH oxidase activity in membrane preparations of LacCer stimulated cells,NADPH oxidase,attenuated
same,effect on LacCer mediated stimulation of ICAM-1 expression,ICAM-1,inhibited
same,effect on LacCer-induced neutrophil adhesion,[4],attenuated
same,effect on LacCer-stimulated Mac-1 upregulation on PMNs,Mac-1 (CD11b/CD18),did not inhibit
same,effect on LacCer induced superoxide generation in PMNs,PMNs [5],relatively less inhibitory
"CC(=O)N[C@@H](CS)C(=O)O [NAC, N-acetylcysteine]",effect on LacCer induced generation of O2- in endothelial cells,Eahy 926 cells,reduced
same,effect on neutrophil ROM generation induced by LacCer,PMNs [3],inhibited
same,effect on LacCer mediated stimulation of ICAM-1 expression,ICAM-1,inhibited
same,effect on LacCer-induced neutrophil adhesion,[4],attenuated
same,effect on LacCer-stimulated Mac-1 upregulation on PMNs,Mac-1 (CD11b/CD18); [7],did not inhibit
S=C(S)N1CCCC1 [PDTC],effect on LacCer mediated stimulation of ICAM-1 expression,ICAM-1,inhibited
Cc1nnc2n1-c1sc(CCC(=O)N3CCOCC3)cc1C(c1ccccc1Cl)=NC2 [WEB 2086],effect on LacCer-stimulated Mac-1 upregulation on PMNs,Mac-1 (CD11b/CD18),No significant inhibition
Oc1ncnc2[nH]ncc12 [allopurinol],effect on LacCer induced generation of O2- in endothelial cells,Eahy 926 cells,failed to inhibit
COc1cc(C(C)=O)ccc1O [apocyanin],effect on LacCer induced superoxide generation in PMNs,PMNs [5],relatively less inhibitory
O=c1c(-c2ccc(O)cc2)coc2cc(O)cc(O)c12 [genistein],effect on LacCer-stimulated Mac-1 upregulation on PMNs,Mac-1 (CD11b/CD18); [7],did not inhibit
"CCN(CC)CCCC(C)Nc1c2ccc(Cl)cc2nc2ccc(OC)cc12 (centres unmarked) [quinacrine, quinacrine dihydrochloride]",effect on LacCer induced PMN adhesion,[6],inhibited
same,effect on LacCer-stimulated Mac-1 upregulation on PMNs,Mac-1 (CD11b/CD18); [7],did block
C=C(C)[C@H]1Cc2c(ccc3c2O[C@@H]2COc4cc(OC)c(OC)cc4[C@@H]2C3=O)O1 [rotenone],effect on NADPH oxidase activity in membrane preparations of LacCer stimulated cells,"NADPH oxidase; DPI 10 μM 30 minutes, rotenone 1 mM",did not inhibit
CN[C@@H]1C[C@H]2O[C@@](C)([C@@H]1OC)n1c3ccccc3c3c4c(c5c6ccccc6n2c5c31)C(=O)NC4 [staurosporine],effect on LacCer-stimulated Mac-1 upregulation on PMNs,Mac-1 (CD11b/CD18),did not inhibit
TNF-α,increase in GalT-2 activity,GalT-2 [1]; [10],1.7 fold
same,stimulation of ICAM-1 expression,ICAM-1; [10],concentration-dependent stimulation
ceramide,"Mac-1 expression on PMNs, other GSL",Mac-1 (CD11b/CD18),did not alter
glucosylceramide [GIcCer],"Mac-1 expression on PMNs, other GSL",Mac-1 (CD11b/CD18),did not alter
